Test results published in patent US7728042B2, “Transdermal pharmaceutical composition” (Richter Gedeon Vegyeszeti Gyar RT, priority 2003, dated 2010).

How the values were obtained:
[1] = Active agent release, Microette Hanson vertical diffusion cell, hydrophilic membrane soaked with water; settings: for Release kinetics of the active agent: liquid crystal transdermal gel, Q=Q0+nt^0.5
[2] = Active agent release, Microette Hanson vertical diffusion cell, lipophilic membrane soaked with isopropyl myristate; settings: release from liquid crystal gel, FIGS. 7-14
[3] = oral administration; cited from earlier work

Compound | Release kinetics of the active agent [1] | other results
Cc1nccn1CC1CCc2c(c3ccccc3n2C)C1=O (stereo not shown) [Ondansetron, 1,2,3,9-tetrahydro-9-methyl-3-[(2-methyl-1H-imidazol-1-il)-methyl]-4H-karbazol-4-on] | generally follows the Higuchi-like relationship | –
Cc1ncc([N+](=O)[O-])n1CCO [Metronidazole, 1-(2-hydroxy-1-ethyl)-2-methyl-5-nitro-imidazol] | generally follows the Higuchi-like relationship | –
CNC1(c2ccccc2Cl)CCCCC1=O (stereo not shown) [Ketamine, 2-(2-chloro-phenyl)-2-(methyl-amino)-cyclohexanon] | generally follows the Higuchi-like relationship | Active agent release in 4 hours, Hydrophilic membrane ([1]; liquid crystal gel with low molecular weight sodium-hyaluronate, ondansetron 1.2%, terbinafine 2.0%, metronidazole 0.9%, eperisone 0.8%, tolperisone 1.0%, ketamine 1.0%): 9.73 μg/cm^2; Crossing of the hydrophilic membrane ([1]; release from liquid crystal gel, FIGS. 7-14): cross the hydrophilic membrane quickly and effectively; Crossing of the membrane impregnated with lipophilic fluid [2]: do not cross the membrane impregnated with lipophilic fluid
CCOC(=O)C1=C[C@]2(CC)CCCN3CCc4c(n1c1ccccc41)[C@@H]32 [vinpocetine, (3α,16α)-eburnamenine-14-carboxylic acid ethylester] | – | Bioavailability [3]: 6-8%
CCc1ccc(C(=O)C(C)CN2CCCCC2)cc1 (stereo not shown) [Eperisone, 1-(4-ethyl-phenyl)-2-methyl-3-(1-piperidinyl)-1-propanon] | generally follows the Higuchi-like relationship | –
CN(C/C=C/C#CC(C)(C)C)Cc1cccc2ccccc12 [Terbinafine, N-(6,6-dimethyl-2-heptene-4-inyl)-N-methyl-(E)-naphtal-1-en-methan-amine] | generally follows the Higuchi-like relationship | –
Cc1ccc(C(=O)C(C)CN2CCCCC2)cc1 (stereo not shown) [Tolperisone, 1-piperidino-2-methyl-3-(p-tolyl)-3-propanon] | generally follows the Higuchi-like relationship | –
